Measurements as given in US5624961A, “Benzylaminoethoxybenzene derivatives, production thereof and use thereof” (priority 1994, dated 1997).
Structures can show the parent of a compound that is named as a salt.

How the values were obtained:
[1] = test system: rabbit; assay: Orthostatic hypotensive effect, tilting of unanesthetized rabbit, orthostatic index (O.I.); assay type: in vivo; details: iv, tilted 90°, without anesthetization
Excerpt: Orthostatic hypotensive effect
The orthostatic hypotensive effect was examined by the following method which is in accordance with the method of Journal of Pharmacological Methods, vol. 5, p. 53 (1981). A rabbit was fixed at the dorsal position without anesthetization on an orthostatic hypotension measurement apparatus. Polyethylene catheters were inserted in right femoral artery and right femoral vein, and the catheter inserted in the artery was connected to a pressure transducer. The head of the rabbit was tilted rapidly at an angle of 90° from the horizontal position at 15 min intervals with the heart position as a rotational axis, and brought back to the horizontal position one minute later. The tilting was repeated three times, and after confirmation of occurrence of a constant response, a drug was administered from the polyethylene catheter inserted in the vein. […] [formula] (2) Test results

[2] = test system: α1 -adrenoceptor; assay: α1-adrenoceptor blocking effect, preparation from the thoracic aorta of rabbit, Magnus method; assay type: cell-based
Experimental: Blocking of α1 -adrenoceptor
The α1 -adrenoceptor blocking effect was determined using a preparation from the thoracic aorta of rabbit, according to the Magnus method and expressed as pA2 value.

Dose necessary for O.I. value to achieve 90% [1] | SMILES | pA2 value [2]
56.4 μg/kg, iv | COc1c(C)c(C)c(O)c(C)c1CN(C)CCOc1cc(C)c(O)cc1C(C)C [Ex. 1, N-(3-hydroxy-6-methoxy-2,4,5-trimethylbenzyl)-N-methyl-2-(4-hydroxy-2-isopropyl-5-methylphenoxy)ethylamine] | 9.0
 | Cc1cc(OCCN(C)Cc2c(C)c(O)c(C)c(C)c2OCCO)c(C(C)C)cc1O [Ex. 2, N-{3-hydroxy-6-(2-hydroxyethoxy)-2,4,5-trimethylbenzyl}-N-methyl-2-(4-hydroxy-2-isopropyl-5-methylphenoxy)ethylamine] | 8.1
 | COc1c(C)c(C)c(O)c(C)c1CNCCOc1cc(C)c(NC(C)=O)cc1C(C)C [Ex. 3, N-(3-hydroxy-6-methoxy-2,4,5-trimethylbenzyl)-2-(4-acetylamino-2-isopropyl-5-methylphenoxy)ethylamine] | 8.2
61.3 μg/kg, iv | CCOc1c(C)c(C)c(O)c(C)c1CN(C)CCOc1cc(C)c(O)cc1C(C)C [Ex. 4, N-(2-ethoxy-5-hydroxy-3,4,6-trimethylbenzyl)-N-methyl-2-(4-hydroxy-2-isopropyl-5-methylphenoxy)ethylamine] | 8.5
 | CCOc1c(C)c(C)c(OC(C)=O)c(C)c1CN(C)CCOc1cc(C)c(OC(C)=O)cc1C(C)C [Ex. 5, N-(3-acetoxy-6-ethoxy-2,4,5-trimethylbenzyl)-N-methyl-2-(4-acetoxy-2-isopropyl-5-methylphenoxy)ethylamine] | 8.3
 | CCN(CC)CCN(CCOc1cc(C)ccc1C(C)C)Cc1c(C)c(O)c(C)c(C)c1OC [Ex. 6, N-(2-diethylaminoethyl)-N-(3-hydroxy-6-methoxy-2,4,5-trimethylbenzyl)-2-(2-isopropyl-5-methylphenoxy)ethylamine] | 7.5
 | CCN(CCOc1cc(C)c(Cl)cc1C(C)C)Cc1c(C)c(O)c(C)c(C)c1OC [Ex. 7, N-ethyl-N-(3-hydroxy-6-methoxy-2,4,5-trimethylbenzyl)-2-(4-chloro-2-isopropyl-5-methylphenoxy)ethylamine] | 7.7
 | COc1c(C)c(C)c(OC)c(CN(CCOc2cc(C)ccc2C(C)C)C(C)=O)c1C [Ex. 8, N-{2-(2-isopropyl-5-methylphenoxy)ethyl}-N-(2,5-dimethoxy-3,4,6-trimethylbenzyl)acetamide] | 7.3
 | COc1c(C)c(C)c(O)c(C)c1CN(C)CCOc1cc(C)c(C(C)=O)cc1C(C)C [Ex. 9, N-(3-hydroxy-6-methoxy-2,4,5-trimethylbenzyl)-N-methyl-2-(4-acetyl-2-isopropyl-5-methylphenoxy)ethylamine] | 7.5
 | COc1c(C)c(C)c(OC)c(CN(C)CCOc2cc(C)c(NC(C)=O)cc2C(C)C)c1C [Ex. 10, N-(2,5-dimethoxy-3,4,6-trimethylbenzyl)-N-methyl-2-(4-acetylamino-2-isopropyl-5-methylphenoxy)ethylamine] | 7.4
 | COc1c(C)c(C)c(OC)c(CN(C)CCOc2cc(C)c(N)cc2C(C)C)c1C [Ex. 11, N-(2,5-dimethoxy-3,4,6-trimethylbenzyl)-N-methyl-2-(4-amino-2-isopropyl-5-methylphenoxy)ethylamine] | 8.3
 | COc1c(C)c(C)c(O)c(C)c1CN(C)CCOc1cc(C)ccc1C(C)C [Ex. 12, N-(3-hydroxy-6-methoxy-2,4,5-trimethylbenzyl)-N-methyl-2-(2-isopropyl-5-methylphenoxy)ethylamine] | 8.1
 | COc1c(C)c(C)c(OC(C)C)c(C)c1CN(C)CCOc1cc(C)ccc1C(C)C [Ex. 14, N-(3-isopropoxy-6-methoxy-2,4,5-trimethylbenzyl)-N-methyl-2-(2-isopropyl-5-methylphenoxy)ethylamine] | 7.6
 | CCOc1c(C)c(C)c(OC)c(CN(C)CCOc2cc(C)ccc2C(C)C)c1C [Ex. 15, N-(3-ethoxy-6-methoxy-2,4,5-trimethylbenzyl)-N-methyl-2-(2-isopropyl-5-methylphenoxy)ethylamine] | 7.5
 | Cc1ccc(C(C)C)c(OCCN(C)Cc2c(C)c(O)c(C)c(C)c2OCCO)c1 [Ex. 16, N-{3-hydroxy-6-(2-hydroxyethoxy)-2,4,5-trimethylbenzyl}-N-methyl-2-(2-isopropyl-5-methylphenoxy)ethylamine] | 7.6
 | C=CCOc1c(C)c(C)c(OC(C)=O)c(C)c1CN(C)CCOc1cc(C)ccc1C(C)C [Ex. 17, N-{3-acetoxy-6-(2-propenyloxy)-2,4,5-trimethylbenzyl}-N-methyl-2-(2-isopropyl-5-methylphenoxy)ethylamine] | 7.4

Dose necessary for O.I. value to achieve 90% [1] | SMILES | pA2 value [2]
 | CCN(CCOc1cc(C)c(Cl)cc1C(C)C)Cc1c(C)c(OC(C)=O)c(C)c(C)c1OC(C)C [Ex. 18, N-(3-acetoxy-6-isopropoxy-2,4,5-trimethylbenzyl)-N-ethyl-2-(4-chloro-2-isopropyl-5-methylphenoxy)ethylamine] | 7.2
 | CCOc1c(C)c(C)c(O)c(CNCCOc2cc(C)ccc2C(C)C)c1C [Ex. 19, N-(3-ethoxy-6-hydroxy-2,4,5-trimethylbenzyl)-2-(2-isopropyl-5-methylphenoxy)ethylamine] | 7.3
 | CCOc1c(C)c(C)c(OCc2ccccc2)c(CNCCOc2cc(C)ccc2C(C)C)c1C [Ex. 20, N-(2-benzyloxy-5-ethoxy-3,4,6-trimethylbenzyl)-2-(2-isopropyl-5-methylphenoxy)ethylamine] | 7.2
32.8 μg/kg, iv | COc1c(C)c(C)c(O)c(C)c1CNCCOc1cc(C)c(O)cc1C(C)C [Ex. 21, N-(3-hydroxy-6-methoxy-2,4,5-trimethylbenzyl)-2-(4-hydroxy-2-isopropyl-5-methylphenoxy)ethylamine] | 9.8
 | COc1c(C)c(C)c(O)c(C)c1CN(CCOc1cc(C)c(O)cc1C(C)C)C(C)C [Ex. 22, N-(3-hydroxy-6-methoxy-2,4,5-trimethylbenzyl)-N-isopropyl-2-(4-hydroxy-2-isopropyl-5-methylphenoxy)ethylamine] | 7.5
 | COCCN(CCOc1cc(C)c(O)cc1C(C)C)Cc1c(C)c(O)c(C)c(C)c1OC [Ex. 23, N-(3-hydroxy-6-methoxy-2,4,5-trimethylbenzyl)-N-(2-methoxyethyl)-2-(4-hydroxy-2-isopropyl-5-methylphenoxy)ethylamine] | 7.6
 | CCCOc1c(C)c(C)c(O)c(C)c1CN(C)CCOc1cc(C)c(O)cc1C(C)C [Ex. 24, N-(3-hydroxy-6-propoxy-2,4,5-trimethylbenzyl)-N-methyl-2-(4-hydroxy-2-isopropyl-5-methylphenoxy)ethylamine] | 8.3
 | CCCCOc1c(C)c(C)c(O)c(C)c1CN(C)CCOc1cc(C)c(O)cc1C(C)C [Ex. 26, N-(2-butoxy-5-hydroxy-3,4,6-trimethylbenzyl)-N-methyl-2-(4-hydroxy-2-isopropyl-5-methylphenoxy)ethylamine] | 8.3
 | CC(=O)Oc1c(C)c(C)c(O)c(CN(C)CCOc2cc(C)c(O)cc2C(C)C)c1C [Ex. 27, N-(3-acetoxy-6-hydroxy-2,4,5-trimethylbenzyl)-N-methyl-2-(4-hydroxy-2-isopropyl-5-methylphenoxy)ethylamine] | 8.1
40.3 μg/kg, iv | COc1c(C)c(C)c(OC)c(CN(C)CCOc2cc(C)c(O)cc2C(C)C)c1C [Ex. 28, N-(2,5-dimethoxy-3,4,6-trimethylbenzyl)-N-methyl-2-(4-hydroxy-2-isopropyl-5-methylphenoxy)ethylamine] | 9.0
 | COCCOc1c(C)c(C)c(O)c(C)c1CN(C)CCOc1cc(C)c(O)cc1C(C)C [Ex. 29, N-{3-hydroxy-6-(2-methoxyethoxy)-2,4,5-trimethylbenzyl}-N-methyl-2-(4-hydroxy-2-isopropyl-5-methylphenoxy)ethylamine] | 8.2
 | CCOc1c(C)c(C)c(O)c(C)c1CN(CCOc1cc(C)c(O)cc1C(C)C)C(C)C [Ex. 30, N-(2-ethoxy-5-hydroxy-3,4,6-trimethylbenzyl)-N-isopropyl-2-(4-hydroxy-2-isopropyl-5-methylphenoxy)ethylamine] | 7.2
 | CCN(CCOc1cc(C)c(O)cc1C(C)C)Cc1c(C)c(O)c(C)c(C)c1OC [Ex. 31, N-ethyl-N-(3-hydroxy-6-methoxy-2,4,5-trimethylbenzyl)-2-(4-hydroxy-2-isopropyl-5-methylphenoxy)ethylamine] | 8.6
 | COc1cc(C(C)C)c(OCCN(C)Cc2c(C)c(OC)c(C)c(C)c2OC)cc1C [Ex. 32, N-(2,5-dimethoxy-3,4,6-trimethylbenzyl)-N-methyl-2-(2-isopropyl-4-methoxy-5-methylphenoxy)ethylamine] | 7.2
 | CC(=O)Oc1cc(C(C)C)c(OCCN(C)C)cc1C [moxisylyte hydrochloride, reference compound] | 7.6
5.6 μg/kg, iv | COc1cc2nc(N3CCN(C(=O)c4ccco4)CC3)nc(N)c2cc1OC [prazosin hydrochloride, reference compound] | 8.6
